Test results taken from patent US11639929B2, “Universal histidine-tag binding compounds and methods of use thereof as fluorescent probes and sensors” (YEDA RESEARCH AND DEVELOPMENT CO. LTD., priority 2014, dated 2023).

How the values were obtained:
His-CaM(Ca^+2) [1] = molecular target: T1, His-CaM(Ca^+2) (Mus musculus, UniProt P0DP26); assay: Surface plasmon resonance on immobilized His-CaM with Ca2+; format: binding; settings: SPR, Table 2, CaCl2 0.3 mM; read-out: Dissociation constant
T1 construct: purchased Israel Structural Proteomics Center (Weizmann Institute of Science)
Procedure: SPR experiments were performed to assess the dissociation constant between His-CaM and the compound 1 in the presence/absence of Ca^2+ ions and other ligands. His-CaM was diluted in 180 μL PBS buffer (4.1 mM, pH=7.3) and 20 μL sodium acetate (1 M, pH=3) to reach a final concentration of 20 μg/mL and then immobilized on a Biacore sensor chip CM5 through EDC/NHS chemistry. Flow cells were activated for 5 min by injecting 50 μL mixture of 50 mM NHS:200 mM EDC. Then 50 μL of His-CaM (20 μg/mL) was injected at a rate of 10 μL/min followed by injection of ethanolamine (1 M) to block the remaining surface-activated groups. Various analytes (Table 1) were injected in different concentrations, ranging from 0.1-2 μM for (20 μL/min, 80 μL injection with a delay of 180 s wash) (Table 1). Between consecutive analyte injections, the surface was regenerated with 2 mM NaOH (20 μL at 10 μL/min) followed by PBS buffer (60 μL at 10 μL/min). Non-derivatized dextran matrix flow cells served as reference cells. […] CaCl2 (0.3 mM) was pre-incubated with the analyte before injections. For the control compound C15 (entry 5), prior to each injection, the chip was washed with 20 μL EDTA (50 mM, 20 μL/min) followed by PBS buffer (20 μL at 20 μL/min) to remove any traces of Ni^2+. The data were globally fitted using BiaEvaluation software 3.2.

His-Bcl-2 = molecular target: T2, His-Bcl-2 (Homo sapiens, UniProt P10415); assay: Probing protein-protein interactions for Bcl-2 with the His-Bcl-2-5 complex; format: binding; settings: complex 200 nM
T2 construct: purchased ProSpec-Tany TechnoGene Ltd. (Ness Ziona, Israel)
T2 sequence (P10415 whole entry): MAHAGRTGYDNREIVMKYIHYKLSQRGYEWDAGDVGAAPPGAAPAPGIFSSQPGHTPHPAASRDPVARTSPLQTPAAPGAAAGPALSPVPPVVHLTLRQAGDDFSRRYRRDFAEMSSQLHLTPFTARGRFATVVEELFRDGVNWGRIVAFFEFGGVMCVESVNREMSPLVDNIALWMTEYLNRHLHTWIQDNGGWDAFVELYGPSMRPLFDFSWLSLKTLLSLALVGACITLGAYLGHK
Procedure: Compounds 1-5 (50 μL, 10 μM) in phosphate buffer (4.1 mM, pH=7.3) were dispensed into a 384-well plate and fluorescence intensities were recorded with an excitation wavelength of 330 nm. His-Bcl-2 (final concentration, 200 nM) and Bax BH3 (final concentration, 1.6 μM) were subsequently added to each well and the fluorescence intensity values were recorded again. The emission values correspond to the maximal intensities recorded either at λem=530 nm or at λem=560 nm. Fluorescence was measured in triplicate. Data shown in FIG. 27 is the average of the triplicates and error bars represent standard deviation. Control experiments were performed in a similar manner (FIG. 28).
A mixture of compound 5 (200 nM) and His-Bcl-2 (200 nM) in PBS buffer (4.1 mM, pH=7.3) was dispensed into a 384-well microplate, and the fluorescence emission spectra were recorded. Various proteins (0.8 μM) and Bax BH3 peptide (0.8 μM) were added and the fluorescence emission was again recorded. Fluorescence measurements were performed in triplicate. The emission intensities before the addition of each protein were normalized to 100% (FIG. 27b).

His-CaM(Ca^+2) [2] = molecular target: T1, His-CaM(Ca^+2); assay: Screening assay with small molecules and peptide inhibitors using the His-CaM(Ca+2)-1 complex; settings: test substance 1.6 μM; decrease indicates binding to the CaM surface
Procedure: A mixture of compound 1 (200 nM), His-CaM (400 nM), and CaCl2 (0.3 mM) in PBS buffer (4.1 mM, pH=7.3) was dispensed into a 384-well microplate, and fluorescence emission spectra were recorded. Then various drugs (1.6 μM) and peptides (1.6 μM) were added and the fluorescence emission was again recorded. Fluorescence measurements were performed in triplicate and the emission intensities before the addition of each drug were normalized to 100% (FIG. 24).

[3] = tested on: E. coli expressing His-OmpC; assay: Decorating bacteria with oligonucleotides, fluorescence microscopy; format: cell-based; settings: 500 nM with Ni(II)
Procedure: Transformed bacteria with the different OmpC constructs (OmpC or His-OmpC) were cultured to saturation in LB medium supplemented with 100 μg/ml of ampicillin at 30° C. 40 μl of the pre-cultured cells were then diluted into 4 ml of fresh LB medium supplemented with ampicillin and incubated until the OD600 reaches ˜0.6. Protein expression was then induced by the addition of 0.1% Rhamnose and 20 μM isopropyl-b-D-1-thiogalactopyranoside (IPTG) and cultures were allowed to grow at 30° C. for 18 h.
The bacterial cells (OmpC or His-OmpC) were collected by centrifugation at 6000 g for 4 min. The pellet was washed twice with PBS×1 buffer and resuspended in the same buffer to an OD600 of 0.3. To a 100 μl sample of the bacteria suspension, a preincubated sample of DNA (500 nM) and NiCl2 (2.5 μM) was added, and the cells were incubated at room temperature for 1 h. Then the bacterial sample were washed twice with PBS, resuspended in 100 μl PBS and placed on a glass-bottom dish (P35G-1.5-14-C; MatTek) precoated with poly-1-lysine (Sigma Aldrich) and left to adhere for 1 h. Finally, the wells were washed vigorously with PBS three times and imaged using an Olympus IX51 fluorescent microscope. The samples were imaged using 60× or 100× objective lenses. […]

Compound | Kd (His-CaM(Ca^+2) [1]) | emission signal of the His-Bcl-2-5 complex after addition of protein or peptide (His-Bcl-2) | fluorescence emission of the His-CaM(Ca+2)-1 complex after addition of drug or peptide (His-CaM(Ca^+2) [2]) | fluorescent labeling of bacteria, fluorescence imaging [3]
CC[C@H](C)[C@H](NC(=O)[C@H](Cc1ccccc1)NC(=O)[C@H](CC(N)=O)NC(=O)[C@H](CCCCN)NC(=O)[C@H](CCCCN)NC(=O)[C@H](Cc1c[nH]c2ccccc12)NC(=O)[C@H](CCCNC(=N)N)NC(=O)[C@H](CCCNC(=N)N)NC(=O)[C@@H](N)CCCCN)C(=O)N[C@@H](C)C(=O)N[C@H](C(=O)N[C@@H](CO)C(=O)N[C@@H](C)C(=O)N[C@@H](C)C(=O)N[C@@H](CC(N)=O)C(=O)N[C@@H](CCCNC(=N)N)C(=O)N[C@@H](Cc1ccccc1)C(=O)N[C@@H](CCCCN)C(=O)N[C@@H](CCCCN)C(=O)N[C@H](C(=O)N[C@@H](CO)C(=O)N[C@@H](CO)C(=O)N[C@@H](CO)C(=O)NCC(=O)N[C@@H](C)C(=O)N[C@@H](CC(C)C)C(=O)O)[C@@H](C)CC)C(C)C [Compound M13] | 8.8 nM | did not change the emission signal |  | 
Clc1ccc(C(c2ccc(Cl)cc2)n2cc[n+](CC(OCc3ccc(Cl)cc3Cl)c3ccc(Cl)cc3Cl)c2)cc1 (stereo not shown) [calmidazolium] |  |  | decrease in the fluorescence emission | 
Bax-BH3: amphipathic alpha helical peptide of Bax, Bax BH3 peptide (55-74) wild type (STKKLSECLKRIGDELDSNM) |  | decreased |  | 
Cy5-labeled ODN: Cy5-labeled ODN lacking a tri-NTA group, negative control (DNA GCGGCGAGGCAGC; Cy5 label, position not given here) |  |  |  | No fluorescence
Mastoparan |  | did not change the emission signal | decrease in the fluorescence emission | 
